This is an account of results in ChEMBL document CHEMBL3351331, “Novel Disubstituted Pyrimidines as Inhibitors of Bruton's Tyrosine Kinase” (ACS Med Chem Lett, 2015).

The structures appear in SMILES notation. A value given as a limit tells only on which side of the number the result lay.

The target in this experiment is Tyrosine-protein kinase BTK (Homo sapiens, UniProt Q06187). Kind of experiment: Inhibition of BTK (unknown origin) by Omnia continuous read kinase assay.
Sequence of Tyrosine-protein kinase BTK (Q06187 whole entry): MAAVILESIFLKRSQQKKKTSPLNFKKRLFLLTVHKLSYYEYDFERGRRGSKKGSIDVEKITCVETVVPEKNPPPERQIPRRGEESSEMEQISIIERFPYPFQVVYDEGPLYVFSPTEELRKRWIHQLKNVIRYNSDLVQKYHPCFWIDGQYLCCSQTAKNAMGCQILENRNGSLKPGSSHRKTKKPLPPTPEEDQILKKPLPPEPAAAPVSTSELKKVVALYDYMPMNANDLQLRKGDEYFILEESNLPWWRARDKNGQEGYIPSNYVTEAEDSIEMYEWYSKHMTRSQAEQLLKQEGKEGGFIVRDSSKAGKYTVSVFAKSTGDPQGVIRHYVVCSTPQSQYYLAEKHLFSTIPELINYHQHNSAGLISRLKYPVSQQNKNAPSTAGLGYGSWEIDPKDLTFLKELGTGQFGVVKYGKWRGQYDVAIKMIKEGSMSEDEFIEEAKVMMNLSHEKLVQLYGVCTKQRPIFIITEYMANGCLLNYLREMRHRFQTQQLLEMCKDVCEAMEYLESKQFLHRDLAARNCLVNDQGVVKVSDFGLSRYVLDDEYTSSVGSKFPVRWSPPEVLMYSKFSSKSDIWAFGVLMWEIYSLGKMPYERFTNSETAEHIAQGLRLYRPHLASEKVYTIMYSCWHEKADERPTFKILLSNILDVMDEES
One may read the IC50 as the concentration that gives 50% inhibition. In turn, `C=CC(=O)Nc1cccc(Nc2nc(Nc3ccc(OCCO)cc3)ncc2F)c1` registered a 50% inhibitory concentration (IC50) of less than 10 nM.

`COCCOc1ccc(Nc2ncc(F)c(Nc3cccc(NC(=O)C4CO4)c3)n2)cc1` (stereo unspecified) came in with an IC50 of less than 10 nM.

Molecule `COCCOc1ccc(Nc2ncc(F)c(Nc3cccc(NC(=O)C(O)CO)c3)n2)cc1` (stereo unspecified) had an IC50 of 101 nM. This counts as sub-micromolar.

With `C=CC(=O)Nc1cccc(Nc2nc(N(C)c3ccc(OCCO)cc3)ncc2F)c1`, the IC50 is 101 nM. The result for `C=CC(=O)Nc1cccc(N(C)c2nc(Nc3ccc(OCCO)cc3)ncc2F)c1` reads less than 10 nM; that for `C=CC(=O)Nc1cccc(Nc2nc(Nc3ccc(O)cc3)ncc2F)c1`, less than 10 nM.
